The values below come from patent US8536202B2, “Triazole-substituted anthranilamides as pesticides” (Bayer Cropscience AG, priority 2010, dated 2013).

Structures are written as SMILES. Like-named read-outs stand apart in the source and are kept apart here.

Data set [1] concerns green peach aphid (Myzus persicae). Nature of the data set: Myzus test (MYZUPE spray treatment), Use Example 4. Particulars: 144 h, read-out: activity in %. Type of data set: in vivo. In outline: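 Compound was formulated in acetone/dimethylformamide with alkylaryl polyglycol ether emulsifier and diluted in emulsifier-containing water. It was sprayed onto Chinese cabbage leaf discs infested with all stages of Myzus persicae. Mortality (%) was scored after 6 days, where 100% means all aphids killed.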

Data set [2] deals with larvae of the mustard beetle (Phaedon cochleariae). Kind of data set: Phaedon test (PHAECO spray treatment). Particulars: 168 h, read-out: activity in %. Type of data set: in vivo. In outline:
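Mortality of mustard beetle larvae, expressed as percent killed (100% all, 0% none), assessed 7 days after spraying. Spray liquor made from compound in acetone plus dimethylformamide with alkylaryl polyglycol ether, diluted in emulsifier-containing water to the desired concentration.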

Data set [3] concerns caterpillars of the armyworm (Spodoptera frugiperda). Nature of the data set: Spodoptera frugiperda test (SPODFR spray treatment). Type of data set: in vivo. The note with it: 168 h, read-out: activity in %. In outline: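 Percent caterpillar mortality read 7 days after infestation (0% none killed, 100% all killed). Treatment was a spray of the acetone/DMF/emulsifier formulation, water-diluted to test concentration, onto Zea mays leaf discs, allowed to dry before larvae were added.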

The nature of data set [4]: log P determination by HPLC on reversed-phase columns (EEC Directive 79/831 Annex V.A8). Type of data set: physicochemical. Particulars: pH 2.7. Put shortly:
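Calibration used unbranched alkan-2-ones of 3 to 16 carbons with known log P, values interpolated linearly from retention times between neighbouring standards. Acidic-range LC-MS run at pH 2.7, eluents aqueous and acetonitrile formic acid 0.1%, linear gradient 10% to 95% acetonitrile.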

The mark [5] stands for this setting: HPLC on reversed-phase columns (C 18), EEC Directive 79/831 Annex V.A8, read-out: logP.

Turning to `CCNC(=O)c1cc(C#N)cc(C)c1NC(=O)c1cc(Cn2ncc(C(F)(F)C(F)(F)C(F)(F)F)n2)nn1-c1ncccc1Cl` [Example 372], the pest or weed control at 100 g/ha in data set [1], in data set [2] and in data set [3] was 100% throughout. Also, the chromatographic logP in data set [4] (setting [5]) stood at 3.65.

On to `Cc1cc(Cl)cc(C(N)=O)c1NC(=O)c1cc(Cn2ncc(C(F)(F)C(F)(F)F)n2)nn1-c1ncccc1Cl` [Example 359], for which the pest or weed control at 100 g/ha is 100% in data set [1] (100 g/ha, after 6 days); 100% in data set [2] (100 g/ha, after 7 days); 100% in data set [3] (100 g/ha, after 7 days). Besides, the chromatographic logP in data set [4] amounted to 3.12.

`Cc1cc(C#N)cc(C(=O)NC(C)(C)C)c1NC(=O)c1cc(Cn2cc(-c3ccc(F)cc3)nn2)nn1-c1ncccc1Cl` [Example 53]: the pest or weed control at 100 g/ha turned out to be 80% in data set [1] (100 g/ha, after 6 days); 100% in data set [2] (100 g/ha, after 7 days); 100% in data set [3] (100 g/ha, after 7 days). Further, the chromatographic logP in data set [4] came out at 3.17.

For `Cc1cc(Cl)cc(C(=O)NC(C)C2CC2)c1NC(=O)c1cc(Cn2cc(C(F)(F)F)nn2)nn1-c1ncccc1Cl` (stereo not drawn) [Example 193], the pest or weed control at 100 g/ha came to 100% in data set [1] (100 g/ha, after 6 days); 100% in data set [2] (100 g/ha, after 7 days); 100% in data set [3] (100 g/ha, after 7 days). Besides, in data set [4], the chromatographic logP came to 3.34.

As to `NC(=O)c1cc(Cl)cc(Cl)c1NC(=O)c1cc(Cn2cc(C(F)(F)F)nn2)nn1-c1ncccc1Cl` [Example 203], the pest or weed control at 100 g/ha was determined as 100% in data set [1] (100 g/ha, after 6 days); 100% in data set [2] (100 g/ha, after 7 days); 100% in data set [3] (100 g/ha, after 7 days). The molecule also gave a chromatographic logP in data set [4] of 2.43.

`CNC(=O)c1cc(Cl)cc(C)c1NC(=O)c1cc(Cn2cc(C(F)(F)F)nn2)nn1-c1ncccc1Cl` [Example 187]: the pest or weed control at 100 g/ha in data set [1] (100 g/ha, after 6 days) stood at 100%; in data set [2] (100 g/ha, after 7 days) it was 100%; in data set [3] (100 g/ha, after 7 days), 100%. Further, the chromatographic logP in data set [4] came out at 2.6.

Take `Cc1cc(C#N)cc(C(=O)NCC#N)c1NC(=O)c1cc(Cn2ncc(C(F)(F)F)n2)nn1-c1ncccc1Cl` [Example 132]: the pest or weed control at 100 g/ha is 100% in data set [1] (100 g/ha, after 6 days); 100% in data set [2] (100 g/ha, after 7 days); 100% in data set [3] (100 g/ha, after 7 days). Further, the chromatographic logP in data set [4] came out at 2.76.

In the case of `Cc1cc(Cl)cc(C(=O)NC2CC2)c1NC(=O)c1cc(Cn2cc(C(F)(F)C(F)(F)C(F)(F)F)nn2)nn1-c1ncccc1Cl` [Example 326], the pest or weed control at 100 g/ha in data set [1], in data set [2] and in data set [3] was 100% throughout. For the same molecule, the chromatographic logP in data set [4] (setting [5]) stood at 3.57.

Consider `Cc1cc(Cl)cc(C(=O)NC(C)C)c1NC(=O)c1cc(Cn2ncc(C(F)(F)F)n2)nn1-c1ncccc1Cl` [Example 139], for which the pest or weed control at 100 g/ha in data set [1] (100 g/ha, after 6 days) is 90%; in data set [2] (100 g/ha, after 7 days) it was 100%; in data set [3] (100 g/ha, after 7 days), 100%. This molecule also showed a chromatographic logP in data set [4] of 3.48.

Turning to `CNC(=O)c1cc(C#N)cc(C)c1NC(=O)c1cc(Cn2cc(C(F)(F)C(F)(F)F)nn2)nn1-c1ncccc1Cl` [Example 317], the pest or weed control at 100 g/ha is 100% in data set [1] (100 g/ha, after 6 days); 100% in data set [2] (100 g/ha, after 7 days); 100% in data set [3] (100 g/ha, after 7 days). In addition, the chromatographic logP in data set [4] worked out at 2.68.

On to `Cc1cc(Cl)cc(C(=O)NC2CC2)c1NC(=O)c1cc(Cn2ncc(C(F)(F)F)n2)nn1-c1ncccc1Cl` [Example 137], for which the pest or weed control at 100 g/ha stood at 100% in data set [1] (100 g/ha, after 6 days); 100% in data set [2] (100 g/ha, after 7 days); 100% in data set [3] (100 g/ha, after 7 days). Further, in data set [4], the chromatographic logP was 3.18.

On to `Cc1cc(I)cc(C(=O)NC(C)C)c1NC(=O)c1cc(Cn2cc(C(F)(F)C(F)(F)F)nn2)nn1-c1ncccc1Cl` [Example 312], for which the pest or weed control at 100 g/ha stood at 80% in data set [1] (100 g/ha, after 6 days); 100% in data set [2] (100 g/ha, after 7 days); 100% in data set [3] (100 g/ha, after 7 days). For the same molecule, in data set [4], the chromatographic logP worked out at 3.73.
